The source of these data is patent publication US11524966B1 (Valo Early Discovery, Inc., priority 2017, dated 2022).

In this assay the target is T1, USP25 (USP25-His6, Boston Biochem E-546) (Homo sapiens, UniProt Q9UHP3).
T1 construct: His6; purchased Boston Biochem E-546
T1 sequence (Q9UHP3 1-1055): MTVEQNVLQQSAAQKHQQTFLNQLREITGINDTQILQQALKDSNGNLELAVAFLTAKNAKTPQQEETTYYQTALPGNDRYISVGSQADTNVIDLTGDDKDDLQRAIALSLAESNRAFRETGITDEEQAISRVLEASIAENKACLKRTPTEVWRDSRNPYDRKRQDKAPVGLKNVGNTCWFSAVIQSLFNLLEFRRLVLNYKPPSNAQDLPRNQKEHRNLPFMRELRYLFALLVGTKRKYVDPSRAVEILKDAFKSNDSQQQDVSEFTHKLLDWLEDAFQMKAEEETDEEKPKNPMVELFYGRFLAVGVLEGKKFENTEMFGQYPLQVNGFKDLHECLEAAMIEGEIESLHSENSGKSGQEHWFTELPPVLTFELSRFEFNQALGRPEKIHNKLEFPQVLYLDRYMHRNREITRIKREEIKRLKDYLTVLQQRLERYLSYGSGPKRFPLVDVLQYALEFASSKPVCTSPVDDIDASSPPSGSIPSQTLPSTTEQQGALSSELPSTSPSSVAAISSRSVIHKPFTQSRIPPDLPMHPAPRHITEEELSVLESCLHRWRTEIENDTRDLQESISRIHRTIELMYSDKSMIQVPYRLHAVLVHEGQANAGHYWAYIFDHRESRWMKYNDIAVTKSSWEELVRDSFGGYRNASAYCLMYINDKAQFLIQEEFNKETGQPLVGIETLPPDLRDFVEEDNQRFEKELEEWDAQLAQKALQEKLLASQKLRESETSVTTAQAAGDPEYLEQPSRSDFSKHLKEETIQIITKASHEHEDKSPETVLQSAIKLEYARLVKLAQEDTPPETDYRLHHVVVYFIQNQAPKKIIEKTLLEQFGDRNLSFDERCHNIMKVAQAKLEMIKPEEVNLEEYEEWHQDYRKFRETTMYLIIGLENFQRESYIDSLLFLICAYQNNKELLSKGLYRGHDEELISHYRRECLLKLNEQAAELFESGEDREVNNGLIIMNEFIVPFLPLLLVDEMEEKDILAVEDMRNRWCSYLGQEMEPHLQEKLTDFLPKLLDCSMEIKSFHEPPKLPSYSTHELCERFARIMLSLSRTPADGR
In words: Ubiquitin-Rhodamine 110 Assay for USP25 Activity, Example A-2. In kind it is biochemical. The note with it: Ubiquitin-Rhodamine 110 assay, Example A-2; read-out: USP25 A-2 IC50 range. A digest of the protocol:
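75 pM USP25-His6 was preincubated 30 min with compound (10-point 3-fold series, 25 μM–1.3 nM) in pH 8.0 Tris buffer with BME, BGG and Triton X-100. Then 25 nM Ub-Rh110 (<<Km) was added for 45 min at room temperature, stopped with citric acid, fluorescence read at 485/535 nm, IC50 by 4-parameter fit.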
As a reminder, the IC50 is the midpoint of a concentration-inhibition curve. Turning to `Cc1ccc2c(N)c(C(=O)N[C@H]3COc4c(F)c(N5CCNCC5)cc(F)c4C3)oc2n1` [Example 68, (R)-3-amino-N-(5,8-difluoro-7-(piperazin-1-yl)chroman-3-yl)-6-methylfuro[2,3-b]pyridine-2-carboxamide], the IC50 is above 2000 nM.

`Cc1ccc2c(N)c(C(=O)N[C@H]3COc4cc([C@@H]5CCNCC5(F)F)ccc4C3)sc2n1` [Example 70, 3-amino-N-((R)-7-((S)-3,3-difluoropiperidin-4-yl)chroman-3-yl)-6-methylthieno[2,3-b]pyridine-2-carboxamide]: the half-inhibitory concentration (IC50) lay within 1 to 50 nM.

Regarding `CO[C@H]1CN(c2ccc3c(c2F)OC[C@H](NC(=O)c2sc4nc(C)ccc4c2N)C3)C[C@@H]1N` [Example 92, 3-amino-N-[(3R)-7-[(3S,4S)-3-amino-4-methoxypyrrolidin-1-yl]-8-fluoro-3,4-dihydro-2H-1-benzopyran-3-yl]-6-methylthieno[2,3-b]pyridine-2-carboxamide], the half-maximal inhibitory concentration (IC50) fell in the range of 200 to 2000 nM.

Consider `O=C(N[C@H]1COc2cc(N3CCNCC3)ccc2C1)c1cnc2c(ccn2C(F)F)c1` [Example 38, (R)-1-(difluoromethyl)-N-(7-(piperazin-1-yl)chroman-3-yl)-1H-pyrrolo[2,3-b]pyridine-5-carboxamide], for which the IC50 was above 2000 nM.

Regarding `O=C(N[C@H]1COc2c(F)c(N3CC4CCC(C3)N4)cc(F)c2C1)c1cnc2c(c1)[C@@H]1C[C@@H]1CN2` [Example 89, (1aS, 7bR)-N-((3R)-7-(3 8-diazabicyclo[3.2.1]octan-3-yl)-5,8-difluorochroman-3-yl)-1a,2,3,7b-tetrahydro-1H-cyclopropa[c][1,8]naphthyridine-6-carboxamide], the concentration for half-maximal inhibition (IC50) fell in the range of 50 to 200 nM.

Turning to `O=C(N[C@H]1COc2cc(N3CCNCC3)ccc2C1)c1cnc2c(ccn2Cc2ccccc2)c1` [Example 59, (R)-1-benzyl-N-(7-(piperazin-1-yl)chroman-3-yl)-1H-pyrrolo[2,3-b]pyridine-5-carboxamide], the IC50 was 1 to 50 nM.

`Cc1ccc2c(N)c(C(=O)N[C@H]3COc4cc(N5C[C@H]6CC[C@@H]5CN6)ncc4C3)sc2n1` [Example 76, N-((R)-7-((1 R,4R)-2,5-diazabicyclo[2.2.2]octan-2-yl)-3,4-dihydro-2H-pyrano[3,2-c]pyridin-3-yl)-3-amino-6-methylthieno[2,3-b]pyridine-2-carboxamide]: the 50% inhibitory concentration (IC50) fell in the range of 50 to 200 nM.

Turning to `Cc1cnc2c(N)c(C(=O)N[C@H]3CCc4nc(N5CC6CC(C5)N6)ccc4C3)sc2n1` [Example 23-11, 7-amino-N-[(6S)-2-{3,6-diazabicyclo[3.1.1]heptan-3-yl}-5,6,7,8-tetrahydroquinolin-6-yl]-3-methylthieno[2,3-b]pyrazine-6-carboxamide], the IC50 was 200 to 2000 nM.

As for `C[C@@H](Nc1ccc(C(=O)N[C@H]2COc3cc(N4CCNCC4)ccc3C2)cn1)c1ccccc1` [Example 54, 6-(((R)-1-phenylethyl)amino)-N-((R)-7-(piperazin-1-yl)chroman-3-yl)nicotinamide], the IC50 is above 2000 nM.

`C[C@@H]1CCc2cc(C(=O)N[C@H]3COc4cc(N5CC6CCC(C5)N6)ccc4C3)cnc2N1` [Example 74, (7R)-N-((3R)-7-(3,8-diazabicyclo[3.2.1]octan-3-yl)chroman-3-yl)-7-methyl-5,6,7,8-tetrahydro-1,8-naphthyridine-3-carboxamide]: the IC50 lay in the range of 200 to 2000 nM.

In the case of `Cc1nc2sc(C(=O)N[C@@H]3COc4cc(N5CC6CCC(C5)N6)c(F)cc4C3)c(N)c2s1` [Example 46, N-((3S)-7-(3 8-diazabicyclo[3.2.1]octan-3-yl)-6-fluorochroman-3-yl)-6-amino-2-methylthieno[2,3-d]thiazole-5-carboxamide], the IC50 lay within 200 to 2000 nM.

On to `Cc1ccc2c(N)c(C(=O)N[C@H]3COc4c(F)c(N5CC6CNCC(C5)O6)cc(F)c4C3)sc2n1` [Example 78, N-((3R)-7-(9-oxa-3,7-diazabicyclo[3.3.1]nonan-3-yl)-5,8-difluorochroman-3-yl)-3-amino-6-methylthieno[2,3-b]pyridine-2-carboxamide], for which the IC50 was in the range of 1 to 50 nM.

Take `Cc1nc2sc(C(=O)N[C@H]3COc4c(F)c(N5CCNCC5)cc(F)c4C3)c(N)c2s1` [Example 56, (R)-6-amino-N-(5,8-difluoro-7-(piperazin-1-yl)chroman-3-yl)-2-methylthieno[2,3-d]thiazole-5-carboxamide]: the IC50 lay within 200 to 2000 nM.

In the case of `C[C@H](Nc1ccc(C(=O)N[C@H]2COc3cc(N4CCNCC4)ccc3C2)cn1)c1ccccc1` [Example 53, 6-(((S)-1-phenylethyl)amino)-N-((R)-7-(piperazin-1-yl)chroman-3-yl)nicotinamide], the IC50 is above 2000 nM.

Take `Cc1cc(C)c2c(N)c(C(=O)N[C@H]3CCc4nc(N5CCNCC5)ccc4C3)sc2n1` [Example 23-14, 3-amino-4,6-dimethyl-N-[(6S)-2-(piperazin-1-yl)-5,6,7,8-tetrahydroquinolin-6-yl]thieno[2,3-b]pyridine-2-carboxamide]: the 50% inhibitory concentration (IC50) is 200 to 2000 nM.

Turning to `CO[C@@H]1CN(c2ccc3c(c2F)OC[C@H](NC(=O)c2sc4nc(C)ccc4c2N)C3)C[C@H]1N` [Example 91, 3-amino-N-[(3R )-7-[(3R,4R)-3-amino-4-methoxypyrrolidin-1-yl]-8-fluoro-3,4-dihydro-2H-1-benzopyran-3-yl]-6-methylthieno[2,3-b]pyridine-2-carboxamide], the half-maximal inhibitory concentration (IC50) was in the range of 200 to 2000 nM.

With `Cc1ccc2c(N)c(C(=O)N[C@H]3COc4cc(N5C[C@@H]6CC[C@H]5CN6)ncc4C3)sc2n1` [Example 75, N-((R)-7-((1S, 4S)-2 5-diazabicyclo[2.2.2]octan-2-yl)-3,4-dihydro-2H-pyrano[3,2-c]pyridin-3-yl)-3-amino-6-methylthieno[2,3-b]pyridine-2-carboxamide], the IC50 lay in the range of 1 to 50 nM.

With `O=C(N[C@@H]1COc2cc(N3CCNCC3)ccc2C1)c1cnc2c(ccn2C(F)F)c1` [Example 39, (S)-1-(difluoromethyl)-N-(7-(piperazin-1-yl)chroman-3-yl)-1H-pyrrolo[2,3-b]pyridine-5-carboxamide], the concentration for half-maximal inhibition (IC50) is above 2000 nM.

As for `COC[C@@H]1CN(c2ccc3c(n2)CC[C@H](NC(=O)c2sc4nc(C)ccc4c2N)C3)C[C@@H]1N` (single isomer, unassigned) [Example 24-1], the half-inhibitory concentration (IC50) is above 2000 nM.

As for `CCn1ccc2cc(C(=O)N[C@H]3COc4c(F)c([C@H]5CCNC[C@H]5O)cc(F)c4C3)nnc21` [Example 85, N-((R)-5,8-difluoro-7-((3S,4R)-3-hydroxypiperidin-4-yl)chroman-3-yl)-7-ethyl-7H-pyrrolo[2,3-c]pyridazine-3-carboxamide], the IC50 is above 2000 nM.

Take `O=C(N[C@H]1COc2cc(N3CC4CCC(C3)N4)ccc2C1)c1cnc2c(c1)CCCN2` [Example 50, N-((3R)-7-(3,8-diazabicyclo[3.2.1]octan-3-yl)chroman-3-yl)-5,6,7,8-tetrahydro-1,8-naphthyridine-3-carboxamide]: the half-inhibitory concentration (IC50) fell in the range of 200 to 2000 nM.

`Cc1ccc2c(N)c(C(=O)N[C@H]3COc4cc(N5CCNCC5)cc(Cl)c4C3)sc2n1` [Example 48, (R)-3-amino-N-(5-chloro-7-(piperazin-1-yl)chroman-3-yl)-6-methylthieno[2,3-b]pyridine-2-carboxamide]: the IC50 fell in the range of 50 to 200 nM.

With `Cc1ccc2c(N)c(C(=O)N[C@H]3COc4c(F)c(N5CCNCC5)cc(F)c4C3)sc2n1` [Example 55, (R)-3-amino-N-(5,8-difluoro-7-(piperazin-1-yl)chroman-3-yl)-6-methylthieno[2,3-b]pyridine-2-carboxamide], the IC50 was 50 to 200 nM.

For the compound `Nc1c(C(=O)N[C@H]2COc3cc(N4CCNCC4)ccc3C2)sc2nc(C3CC3)sc12` [Example 45], the IC50 fell in the range of 200 to 2000 nM.
